Data from ChEMBL document CHEMBL1201862, “PubChem BioAssay data set” (2004).
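Step 1: Grow cells in 96-well plates. Step 2: Expose to compound for 48 hours at 5 concentrations. Step 3: Interpolate endpoints linearly; if unreached, use highest concentration. Here, GI50 denotes the concentration required for 50% inhibition of growth.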 Activity calls are given as the source filed them. Cut-off read from the data, not from the text of the source: active = GI50 up to about 1.1 µM and inactive = higher.

Key:
Assay in all cases: NCI tumour cell line growth inhibition, 48 h
HCC 2998 = tested on: HCC 2998
UO-31 = tested on: UO-31
Malme-3M = tested on: Malme-3M
NCI-H460 = tested on: NCI-H460
RPMI-8226 = tested on: RPMI-8226
NCI-H23 = tested on: NCI-H23
SNB-75 = tested on: SNB-75
UACC-62 = tested on: UACC-62
SK-MEL-28 = tested on: SK-MEL-28
DMS-114 = tested on: DMS-114
UACC-257 = tested on: UACC-257
SN12C = tested on: SN12C
SK-MEL-2 = tested on: SK-MEL-2
SNB-19 = tested on: SNB-19
U-251 = tested on: U-251
IGROV-1 = tested on: IGROV-1
HCT-116 = tested on: HCT-116
KM12 = tested on: KM12
COLO 205 = tested on: COLO 205
ACHN = tested on: ACHN
OVCAR-5 = tested on: OVCAR-5
DMS-273 = tested on: DMS-273
CCRF-CEM = tested on: CCRF-CEM
OVCAR-4 = tested on: OVCAR-4
LXFL 529 = tested on: LXFL 529
SF-295 = tested on: SF-295
K562 = tested on: K562
A498 = tested on: A498
RXF 393 = tested on: RXF 393
HT-29 = tested on: HT-29
RXF 631 = tested on: RXF 631
OVCAR-3 = tested on: OVCAR-3
LOX IMVI = tested on: LOX IMVI
NCI-H226 = tested on: NCI-H226
HOP-92 = tested on: HOP-92
M14 = tested on: M14
XF498 = tested on: XF498
CAKI-1 = tested on: CAKI-1
786-0 = tested on: 786-0
DLD-1 = tested on: DLD-1
HL-60 = tested on: HL-60
MOLT-4 = tested on: MOLT-4
SF-268 = tested on: SF-268
HOP-62 = tested on: HOP-62
M19-MEL = tested on: M19-MEL
SK-OV-3 = tested on: SK-OV-3
TK-10 = tested on: TK-10
SF-539 = tested on: SF-539
SNB-78 = tested on: SNB-78
A549 = tested on: A549
SK-MEL-5 = tested on: SK-MEL-5
SW-620 = tested on: SW-620
NCI-H522 = tested on: NCI-H522
OVCAR-8 = tested on: OVCAR-8
EKVX = tested on: EKVX
HCT-15 = tested on: HCT-15
HOP-18 = tested on: HOP-18
KM-20L2 = tested on: KM-20L2

COc1ccc2oc(-c3cccnc3)cc(=O)c2c1
GI50 (HCC 2998): > 100 µM (inactive)
GI50 (UO-31): 27.2 µM (inactive)
GI50 (Malme-3M): > 100 µM (inactive)
GI50 (NCI-H460): 32.4 µM (inactive)
GI50 (RPMI-8226): 53 µM (inactive)
GI50 (NCI-H23): > 100 µM (inactive)
GI50 (SNB-75): 40.8 µM (inactive)
GI50 (UACC-62): 80.7 µM (inactive)
GI50 (SK-MEL-28): > 100 µM (inactive)
GI50 (DMS-114): 80.7 µM (inactive)
GI50 (UACC-257): > 100 µM (inactive)
GI50 (SN12C): 71.4 µM (inactive)
GI50 (SK-MEL-2): > 100 µM (inactive)
GI50 (SNB-19): 97.1 µM (inactive)
GI50 (U-251): > 100 µM (inactive)
GI50 (IGROV-1): 70.8 µM (inactive)
GI50 (HCT-116): 80.7 µM (inactive)
GI50 (KM12): > 100 µM (inactive)
GI50 (COLO 205): > 100 µM (inactive)
GI50 (ACHN): 59.3 µM (inactive)
GI50 (OVCAR-5): > 10 µM (inactive)
GI50 (DMS-273): 52 µM (inactive)
GI50 (CCRF-CEM): 49.9 µM (inactive)
GI50 (OVCAR-4): > 100 µM (inactive)
GI50 (LXFL 529): 71.6 µM (inactive)
GI50 (SF-295): > 100 µM (inactive)
GI50 (K562): 67.8 µM (inactive)
GI50 (A498): 61.2 µM (inactive)
GI50 (RXF 393): > 100 µM (inactive)
GI50 (HT-29): 59.4 µM (inactive)
GI50 (RXF 631): 52.7 µM (inactive)
GI50 (OVCAR-3): 91.8 µM (inactive)
GI50 (LOX IMVI): 47.5 µM (inactive)
GI50 (NCI-H226): > 100 µM (inactive)
GI50 (HOP-92): 46.1 µM (inactive)
GI50 (M14): > 100 µM (inactive)
GI50 (XF498): 95.1 µM (inactive)
GI50 (CAKI-1): 42.7 µM (inactive)
GI50 (786-0): > 100 µM (inactive)
GI50 (DLD-1): > 100 µM (inactive)
GI50 (HL-60): 52.5 µM (inactive)
GI50 (MOLT-4): 36.6 µM (inactive)
GI50 (SF-268): 58.3 µM (inactive)
GI50 (HOP-62): 84.7 µM (inactive)
GI50 (M19-MEL): > 100 µM (inactive)

CN[C@@H](C)[C@@H](NC)c1ccccc1
GI50 (HCC 2998): > 100 µM (inactive)
GI50 (SK-OV-3): > 100 µM (inactive)
GI50 (UO-31): > 100 µM (inactive)
GI50 (TK-10): > 100 µM (inactive)
GI50 (NCI-H460): > 100 µM (inactive)
GI50 (RPMI-8226): > 100 µM (inactive)
GI50 (NCI-H23): > 100 µM (inactive)
GI50 (SF-539): > 100 µM (inactive)
GI50 (SNB-75): > 100 µM (inactive)
GI50 (UACC-62): > 100 µM (inactive)
GI50 (SK-MEL-28): > 100 µM (inactive)
GI50 (DMS-114): > 100 µM (inactive)
GI50 (SNB-78): > 100 µM (inactive)
GI50 (UACC-257): > 100 µM (inactive)
GI50 (SN12C): > 100 µM (inactive)
GI50 (A549): > 100 µM (inactive)
GI50 (U-251): 1.52 µM (inactive)
GI50 (IGROV-1): > 100 µM (inactive)
GI50 (HCT-116): > 100 µM (inactive)
GI50 (KM12): > 100 µM (inactive)
GI50 (COLO 205): > 100 µM (inactive)
GI50 (ACHN): > 100 µM (inactive)
GI50 (DMS-273): > 100 µM (inactive)
GI50 (CCRF-CEM): > 100 µM (inactive)
GI50 (LXFL 529): > 100 µM (inactive)
GI50 (SF-295): > 100 µM (inactive)
GI50 (SK-MEL-5): > 100 µM (inactive)
GI50 (K562): > 100 µM (inactive)
GI50 (A498): > 100 µM (inactive)
GI50 (RXF 393): > 100 µM (inactive)
GI50 (HT-29): > 100 µM (inactive)
GI50 (RXF 631): > 100 µM (inactive)
GI50 (OVCAR-3): > 100 µM (inactive)
GI50 (LOX IMVI): > 100 µM (inactive)
GI50 (SW-620): > 100 µM (inactive)
GI50 (NCI-H226): > 100 µM (inactive)
GI50 (NCI-H522): > 100 µM (inactive)
GI50 (HOP-92): > 100 µM (inactive)
GI50 (M14): > 100 µM (inactive)
GI50 (OVCAR-8): > 100 µM (inactive)
GI50 (CAKI-1): > 100 µM (inactive)
GI50 (786-0): > 100 µM (inactive)
GI50 (DLD-1): > 100 µM (inactive)
GI50 (EKVX): > 100 µM (inactive)
GI50 (HCT-15): > 100 µM
GI50 (MOLT-4): > 100 µM (inactive)
GI50 (M19-MEL): > 100 µM (inactive)
GI50 (HOP-18): > 100 µM (inactive)

O=C(O)C1NCCc2c1[nH]c1ccccc21 (centres undefined)
GI50 (UO-31): > 100 µM (inactive)
GI50 (NCI-H460): > 100 µM (inactive)
GI50 (DMS-114): > 100 µM (inactive)
GI50 (SNB-78): > 100 µM (inactive)
GI50 (SK-MEL-2): > 100 µM (inactive)
GI50 (OVCAR-5): > 100 µM (inactive)
GI50 (DMS-273): > 100 µM (inactive)
GI50 (LXFL 529): > 100 µM (inactive)
GI50 (SF-295): > 100 µM (inactive)
GI50 (RXF 631): > 100 µM (inactive)
GI50 (LOX IMVI): > 100 µM (inactive)
GI50 (NCI-H226): > 100 µM (inactive)
GI50 (DLD-1): > 100 µM (inactive)
GI50 (KM-20L2): > 100 µM (inactive)
GI50 (M19-MEL): > 100 µM (inactive)
GI50 (HOP-18): > 100 µM (inactive)
